Data as given in publication PMC10066365, “Nemacol is a small molecule inhibitor of C. elegans vesicular acetylcholine transporter with anthelmintic potential” (Nature Communications, 2023).
Where “and” joins values, the source holds several entries; their conditions need not be identical. Equal values may be shown once. Read-outs that look alike come from different tables or passages of the source.

Legend:
C. elegans = C. elegans motor phenotype scoring on solid media (Punc/jerky-unc, coiled, paralyzed), wild-type young adults; assay type: in vivo, Caenorhabditis elegans; settings: for atypical locomotion (number of animals) / coiled (number of animals) / no phene (number of animals) / paralyzed (number of animals) / any phene: mean % fraction of young adults exhibiting any phenotype (coiled, jerky-Unc or paralyzed) / any phene, mean % fraction of young adults exhibiting any phenotype (coiled, jerky-Unc or paralyzed): one hour; for atypical locomotion (number of animals) / coiled (number of animals) / no phene (number of animals) / paralyzed (number of animals): young adults, 20 animals per trial; for any phene: mean % fraction of young adults exhibiting any phenotype (coiled, jerky-Unc or paralyzed) / any phene, mean % fraction of young adults exhibiting any phenotype (coiled, jerky-Unc or paralyzed): mean of three biological replicates; for EC50: Caenorhabditis elegans, read-out: C. elegans - motor disruption EC50
[1] = test system: Dirofilaria immitis microfilariae; assay: Dirofilaria immitis microfilariae immobility assay (DiroImager, 72 h); settings: for % effect (motility), DIROIM MF: Dirofilaria immitis microfilariae
Method in brief: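 Motility read after 72 h drug exposure with an image-based high-throughput plate imager, 1% DMSO medium serving as negative control. Missouri-isolate microfilariae, roughly 250 per well, freshly purified and cultured in supplemented RPMI 1640.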

[2] = test system: Dirofilaria immitis L3/L4; assay: Dirofilaria immitis L3/L4 motility assay (DiroImager, 72 h); settings: Dirofilaria immitis L4
Pristionchus pacificus = Pristionchus pacificus motor disruption dose-response on solid media, 1 h; settings: for mean % any phene: any phenotype (coiled, jerky-Unc or paralyzed) at one hour; for mean % any phene / mean % any phene (coiled, jerky-Unc or paralyzed): mean of three biological replicates; for rep 1 atypical locomotion / rep 1 coiled / rep 1 no phene / rep 1 paralyzed / rep 2 atypical locomotion / rep 2 coiled / rep 2 no phene / rep 2 paralyzed / rep 3 atypical locomotion / rep 3 coiled / rep 3 no phene / rep 3 paralyzed: count of 20 animals per trial, one hour; for mean % any phene (coiled, jerky-Unc or paralyzed): Pristionchus pacificus young adults; for EC50: Pristionchus pacificus, 1 h, read-out: P. pacificus motor disruption EC50
Method: Locomotor phenotype analyses were done in 24-well plates with 1 mL of MYOB substrate (27.5 g Trizma HCl, 12 g Trizma Base, 230 g bacto tryptone, 10 g NaCl, 0.4 g cholesterol (95%)) seeded with 25 µL of OP50 Escherichia coli on each well. Each compound was added to the MYOB substrate before pouring to achieve the desired final concentrations of 30 µM or 60 µM after diffusion through the media. Synchronized young adult worms are transferred into each well using a platinum wire pick. A Leica MZ75 stereomicroscope was used to visualize the movement of worms on the solid substrate. The specific dominant locomotor phenotype (i.e. ‘Punc’, ‘paralyzed’, ‘coiler’ or ‘wild-type locomotion’) was scored after the touch on the head with a platinum wire over a ~3–5 s of observation. […] Coiled animals were not scored as paralyzed despite sometimes not responding to light touch.

[3] = 3.75uM, single technical replicate
[4] = 15uM, single technical replicate
[5] = 60uM, single technical replicate
[6] = any motor phenotype after 1 h on solid media, ± 95% CI
[7] = 3.75uM, single replicate counts
[8] = conc 3.75, observed at one hour

## c1cc(N2CCN(CC3CCC3)CC2)ccn1 [Nemacol-60]
C. elegans; [3]
  atypical locomotion (number of animals): 0 and 2 and 3
  coiled (number of animals): 0
  no phene (number of animals): 20 and 18 and 17
  paralyzed (number of animals): 0
C. elegans; 3.75uM
  any phene: mean % fraction of young adults exhibiting any phenotype (coiled, jerky-Unc or paralyzed): 4.167%
C. elegans; [4]
  atypical locomotion (number of animals): 0 and 10 and 15
  coiled (number of animals): 0
  no phene (number of animals): 20 and 9 and 5
  paralyzed (number of animals): 0 and 1
C. elegans; 15uM
  any phene: mean % fraction of young adults exhibiting any phenotype (coiled, jerky-Unc or paralyzed): 21.6667%
C. elegans; [5]
  atypical locomotion (number of animals): 0 and 2 and 4 and 16 and 14
  coiled (number of animals): 0
  no phene (number of animals): 20 and 18 and 16 and 4 and 6
  paralyzed (number of animals): 0
C. elegans; 60uM
  any phene: mean % fraction of young adults exhibiting any phenotype (coiled, jerky-Unc or paralyzed): 30%
C. elegans; [6]
  EC50: > 60 µM
[1]; 0.016 µM
  % effect (motility), DIROIM MF: 0%
[1]; 0.08 µM
  % effect (motility), DIROIM MF: 0%
[1]; 0.4 µM
  % effect (motility), DIROIM MF: 0%
[1]; 2 µM
  % effect (motility), DIROIM MF: 0%
[1]; 10 µM
  % effect (motility), DIROIM MF: 0%
[2]; 10 µM
  % effect (motility), DIROIM L4: 0%
[2]; 50 µM
  % effect (motility), DIROIM L4: 10%
Pristionchus pacificus; conc 3.75
  mean % any phene: 0%
  rep 1 atypical locomotion: 0
  rep 1 coiled: 0
  rep 1 no phene: 20
  rep 1 paralyzed: 0
  rep 2 atypical locomotion: 0
  rep 2 coiled: 0
  rep 2 no phene: 20
  rep 2 paralyzed: 0
  rep 3 atypical locomotion: 0
  rep 3 coiled: 0
  rep 3 no phene: 20
  rep 3 paralyzed: 0
Pristionchus pacificus; conc 15
  mean % any phene: 0%
  rep 1 atypical locomotion: 0
  rep 1 coiled: 0
  rep 1 no phene: 20
  rep 1 paralyzed: 0
  rep 2 atypical locomotion: 0
  rep 2 coiled: 0
  rep 2 no phene: 20
  rep 2 paralyzed: 0
  rep 3 atypical locomotion: 0
  rep 3 coiled: 0
  rep 3 no phene: 20
  rep 3 paralyzed: 0
Pristionchus pacificus; conc 60
  mean % any phene: 0%
  rep 1 atypical locomotion: 0
  rep 1 coiled: 0
  rep 1 no phene: 20
  rep 1 paralyzed: 0
  rep 2 atypical locomotion: 0
  rep 2 coiled: 0
  rep 2 no phene: 20
  rep 2 paralyzed: 0
  rep 3 atypical locomotion: 0
  rep 3 coiled: 0
  rep 3 no phene: 20
  rep 3 paralyzed: 0

## O=[N+]([O-])c1ccc(N2CCN(Cc3ccccc3)CC2)cc1 [Nemacol-6]
C. elegans; 3.75uM
  any phene, mean % fraction of young adults exhibiting any phenotype (coiled, jerky-Unc or paralyzed): 0%
C. elegans; [7]
  atypical locomotion (number of animals): 0
  coiled (number of animals): 0
  no phene (number of animals): 20
  paralyzed (number of animals): 0
C. elegans; 15uM
  any phene, mean % fraction of young adults exhibiting any phenotype (coiled, jerky-Unc or paralyzed): 7.5%
C. elegans; 15uM, single replicate counts
  atypical locomotion (number of animals): 1 and 0 and 2 and 5
  coiled (number of animals): 0
  no phene (number of animals): 19 and 20 and 18 and 15
  paralyzed (number of animals): 0
C. elegans; 60uM
  any phene, mean % fraction of young adults exhibiting any phenotype (coiled, jerky-Unc or paralyzed): 44.1667%
C. elegans; 60uM, single replicate counts
  atypical locomotion (number of animals): 5 and 3 and 4 and 19 and 13
  coiled (number of animals): 1 and 0 and 3
  no phene (number of animals): 14 and 17 and 12 and 16 and 1 and 7
  paralyzed (number of animals): 0
C. elegans; 1 h
  EC50: > 60 µM
[1]; 0.016 µM
  % effect (motility), DIROIM MF: 0%
[1]; 0.08 µM
  % effect (motility), DIROIM MF: 0%
[1]; 0.4 µM
  % effect (motility), DIROIM MF: 0%
[1]; 2 µM
  % effect (motility), DIROIM MF: 0%
[1]; 10 µM
  % effect (motility), DIROIM MF: 0%
[2]; 2 µM
  % effect (motility), DIROIM L4: 5%
[2]; 10 µM
  % effect (motility), DIROIM L4: 6%
[2]; 50 µM
  % effect (motility), DIROIM L4: 20%
Pristionchus pacificus; [8]
  mean % any phene (coiled, jerky-Unc or paralyzed): 0%
Pristionchus pacificus; conc 15, observed at one hour
  mean % any phene (coiled, jerky-Unc or paralyzed): 1.667%
Pristionchus pacificus; conc 60, observed at one hour
  mean % any phene (coiled, jerky-Unc or paralyzed): 23.3333%
Pristionchus pacificus
  EC50: > 60 µM

## O=[N+]([O-])c1ccc(N2CCN(C3CCCC3)CC2)cc1 [Nemacol-61]
C. elegans; [3]
  atypical locomotion (number of animals): 0 and 1
  coiled (number of animals): 0 and 17 and 13
  no phene (number of animals): 20 and 19 and 3 and 7
  paralyzed (number of animals): 0
C. elegans; 3.75uM
  any phene: mean % fraction of young adults exhibiting any phenotype (coiled, jerky-Unc or paralyzed): 25.8333%
C. elegans; [4]
  atypical locomotion (number of animals): 10 and 13 and 12 and 2 and 4
  coiled (number of animals): 0 and 1 and 2 and 18 and 16
  no phene (number of animals): 8 and 7 and 5 and 4 and 0
  paralyzed (number of animals): 2 and 0 and 4
C. elegans; 15uM
  any phene: mean % fraction of young adults exhibiting any phenotype (coiled, jerky-Unc or paralyzed): 80%
C. elegans; [5]
  atypical locomotion (number of animals): 0 and 17 and 18
  coiled (number of animals): 19 and 12 and 13 and 3 and 2
  no phene (number of animals): 0
  paralyzed (number of animals): 1 and 8 and 7 and 0
C. elegans; 60uM
  any phene: mean % fraction of young adults exhibiting any phenotype (coiled, jerky-Unc or paralyzed): 100%
C. elegans; [6]
  EC50: 6.8 ± 4.1 µM
[1]; 0.016 µM
  % effect (motility), DIROIM MF: 0%
[1]; 0.08 µM
  % effect (motility), DIROIM MF: 0%
[1]; 0.4 µM
  % effect (motility), DIROIM MF: 0%
[1]; 2 µM
  % effect (motility), DIROIM MF: 0%
[1]; 10 µM
  % effect (motility), DIROIM MF: 40%
[1]; Dirofilaria immitis, 72 h, read-out: Dirofilaria immitis filariae EC50
  EC50: 11 µM
[2]; 2 µM
  % effect (motility), DIROIM L4: 0%
[2]; 10 µM
  % effect (motility), DIROIM L4: 0%
[2]; 50 µM
  % effect (motility), DIROIM L4: 20%
Pristionchus pacificus; [8]
  mean % any phene (coiled, jerky-Unc or paralyzed): 12.5%
Pristionchus pacificus; conc 15, observed at one hour
  mean % any phene (coiled, jerky-Unc or paralyzed): 9.167%
Pristionchus pacificus; conc 60, observed at one hour
  mean % any phene (coiled, jerky-Unc or paralyzed): 88.3333%
Pristionchus pacificus
  EC50: 31.2 ± 9.6 µM
